How the values were obtained:
[1] = tested on: velvetleaf; test: Test B pre/postemergence velvetleaf; format: in vivo, Abutilon theophrasti
Summary of the method: (§1)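 Test chemicals in a non-phytotoxic solvent mixture with surfactant were sprayed preemergence onto planted seeds and postemergence onto plants 2 to 18 cm tall (1- to 4-leaf stage). After twelve to sixteen days in a greenhouse, injury was visually rated against untreated controls from 0 (no effect) to 10 (complete control).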

[2] = tested on: purple nutsedge; test: Test B pre/postemergence purple nutsedge; format: in vivo, Cyperus rotundus
Summary of the method: as §1

[3] = tested on: cocklebur; test: Test B pre/postemergence cocklebur; format: in vivo, Xanthium strumarium
Summary of the method: as §1

[4] = tested on: corn; test: Test B pre/postemergence corn; format: in vivo, Zea mays
Summary of the method: as §1

[5] = tested on: sugar beet; test: Test B pre/postemergence sugar beet; format: in vivo, Beta vulgaris
Summary of the method: as §1

[6] = tested on: morningglory; test: Test B pre/postemergence morningglory; format: in vivo, Ipomoea hederacea
Summary of the method: as §1

[7] = tested on: giant foxtail; test: Test B pre/postemergence giant foxtail; format: in vivo, Setaria faberii
Summary of the method: as §1

[8] = tested on: wheat; test: Test B pre/postemergence wheat; format: in vivo, Triticum aestivum
Summary of the method: as §1

[9] = tested on: duck salad; test: Test B flood test duck salad; format: in vivo, Heteranthera limosa
Summary of the method: (§2)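 Flood test on plants grown to the 2-leaf stage; treated plants kept in greenhouse twelve to sixteen days, then visually rated against controls on a 0 (no effect) to 10 (complete control) scale.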

[10] = tested on: soybean; test: Test B pre/postemergence soybean; format: in vivo, Glycine max
Summary of the method: as §1

[11] = tested on: pigweed; test: Test B pre/postemergence pigweed; format: in vivo, Amaranthus retroflexus
Summary of the method: as §1

[12] = tested on: wild oat; test: Test B pre/postemergence wild oat; format: in vivo, Avena fatua
Summary of the method: as §1

[13] = tested on: crabgrass; test: Test B pre/postemergence crabgrass; format: in vivo, Digitaria sanguinalis
Summary of the method: as §1

[14] = tested on: rape; test: Test B pre/postemergence rape; format: in vivo, Brassica napus
Summary of the method: as §1

[15] = tested on: rice; test: Test B flood test rice; format: in vivo, Oryza sativa
Summary of the method: as §2

[16] = tested on: smallflower flatsedge; test: Test B flood test smallflower flatsedge; format: in vivo, Cyperus difformis
Summary of the method: as §2

[17] = Postemergence, Rate 250 g/ha, scale 0 to 10
[18] = Postemergence, Rate 500 g/ha, scale of 0 to 10 where 0 is no effect and 10 is complete control
[19] = Postemergence, Rate 1000 g/ha, scale 0 to 10 (0 no effect, 10 complete control)
[20] = Preemergence, Rate 125 g/ha, scale of 0 to 10 where 0 is no effect and 10 is complete control
[21] = Preemergence, Rate 250 g/ha, scale 0 to 10, 0 is no effect, 10 is complete control
[22] = Preemergence, Rate 500 g/ha, scale 0 to 10, 0 is no effect, 10 is complete control
[23] = Rate 125 g/ha, Postemergence, scale 0 to 10, 0 is no effect, 10 is complete control
[24] = Rate 1000 g/ha, Preemergence, scale 0 to 10 (0 no effect, 10 complete control)
[25] = Pre-emergence, Rate 1000 g/ha, scale 0 to 10 (0 no effect, 10 complete control)
[26] = Rate 125 g/ha, under heading Pre-emergence, flood test species, visual evaluation after twelve to sixteen days
[27] = Rate 250 g/ha, Pre-emergence (flood test species), scale 0 to 10, 0 is no effect, 10 is complete control
[28] = Rate 500 g/ha, Pre-emergence, flood test species, scale 0 to 10 (0 no effect, 10 complete control)

CCOP(=O)(OCC)C(C)n1c(=O)on(C(=O)N(c2ccccc2)C(C)C)c1=O (stereo not drawn) [Compound 448]
Velvetleaf plant response rating [1, 17]: 0 | Velvetleaf plant response rating [1, 18]: 0 | Velvetleaf plant response rating [1, 19]: 2 | Plant response rating, Velvetleaf [1, 20]: 0 | Velvetleaf plant response rating [1, 21]: 0 | Velvetleaf plant response rating [1, 22]: 0 | Velvetleaf plant response rating [1, 23]: 0 | Plant response rating, Velvetleaf [1, 24]: 0 | Nutsedge plant response rating [2, 17]: 0 | Nutsedge plant response rating [2, 18]: 0 | Nutsedge plant response rating [2, 19]: 0 | Plant response rating, Nutsedge [2, 20]: 0 | Nutsedge plant response rating [2, 21]: 0 | Nutsedge plant response rating [2, 22]: 0 | Nutsedge plant response rating [2, 23]: 0 | Plant response rating, Nutsedge [2, 24]: 0 | Cocklebur plant response rating [3, 17]: 0 | Cocklebur plant response rating [3, 18]: 0 | Cocklebur plant response rating [3, 19]: 0 | Plant response rating, Cocklebur [3, 20]: 0 | Cocklebur plant response rating [3, 21]: 0 | Cocklebur plant response rating [3, 23]: 0 | Corn plant response rating [4, 17]: 0 | Corn plant response rating [4, 18]: 0 | Corn plant response rating [4, 19]: 0 | Plant response rating, Corn [4, 20]: 0 | Corn plant response rating [4, 21]: 0 | Corn plant response rating [4, 22]: 0 | Corn plant response rating [4, 23]: 0 | Plant response rating, Corn [4, 24]: 2 | Sugarbeets plant response rating [5, 17]: 0 | Sugarbeets plant response rating [5, 18]: 0 | Sugarbeets plant response rating [5, 19]: 0 | Plant response rating, Sugarbeets [5, 20]: 0 | Sugarbeets plant response rating [5, 21]: 0 | Sugarbeets plant response rating [5, 22]: 0 | Sugarbeets plant response rating [5, 23]: 0 | Plant response rating, Sugarbeets [5, 24]: 0 | Morningglory plant response rating [6, 17]: 2 | Morningglory plant response rating [6, 18]: 5 | Morningglory plant response rating [6, 19]: 8 | Plant response rating, Morningglory [6, 20]: 0 | Morningglory plant response rating [6, 21]: 0 | Morningglory plant response rating [6, 22]: 0 | Morningglory plant response rating [6, 23]: 0 | Plant response rating, Morningglory [6, 24]: 0 | Giant foxtail plant response rating [7, 17]: 0 | Giant foxtail plant response rating [7, 18]: 0 | Giant foxtail plant response rating [7, 19]: 0 | Plant response rating, Giant foxtail [7, 20]: 2 | Giant foxtail plant response rating [7, 21]: 3 | Giant foxtail plant response rating [7, 22]: 9 | Giant foxtail plant response rating [7, 23]: 0 | Plant response rating, Giant foxtail [7, 24]: 9 | Wheat plant response rating [8, 17]: 0 | Wheat plant response rating [8, 18]: 0 | Wheat plant response rating [8, 19]: 0 | Plant response rating, Wheat [8, 20]: 0 | Wheat plant response rating [8, 21]: 0 | Wheat plant response rating [8, 22]: 0 | Wheat plant response rating [8, 23]: 0 | Plant response rating, Wheat [8, 24]: 0 | Ducksalad plant response rating [9, 25]: 0 | Ducksalad plant response rating (0 to 10 scale, 0 is no effect, 10 is complete control) [9, 26]: 0 | Ducksalad plant response rating [9, 27]: 0 | Ducksalad plant response rating [9, 28]: 0 | Soybean plant response rating [10, 17]: 2 | Soybean plant response rating [10, 18]: 5 | Soybean plant response rating [10, 19]: 6 | Plant response rating, Soybean [10, 20]: 0 | Soybean plant response rating [10, 21]: 0 | Soybean plant response rating [10, 22]: 0 | Soybean plant response rating [10, 23]: 1 | Plant response rating, Soybean [10, 24]: 0 | Redroot pigweed plant response rating [11, 17]: 0 | Redroot pigweed plant response rating [11, 18]: 0 | Redroot pigweed plant response rating [11, 19]: 0 | Plant response rating, Redroot pigweed [11, 20]: 0 | Redroot pigweed plant response rating [11, 21]: 0 | Redroot pigweed plant response rating [11, 22]: 0 | Redroot pigweed plant response rating [11, 23]: 0 | Plant response rating, Redroot pigweed [11, 24]: 0 | Wild oats plant response rating [12, 17]: 0 | Wild oats plant response rating [12, 18]: 0 | Wild oats plant response rating [12, 19]: 4 | Plant response rating, Wild oats [12, 20]: 0 | Wild oats plant response rating [12, 21]: 0 | Wild oats plant response rating [12, 22]: 0 | Wild oats plant response rating [12, 23]: 0 | Plant response rating, Wild oats [12, 24]: 5 | Crabgrass plant response rating [13, 17]: 0 | Crabgrass plant response rating [13, 18]: 0 | Crabgrass plant response rating [13, 19]: 0 | Plant response rating, Crabgrass [13, 20]: 4 | Crabgrass plant response rating [13, 21]: 4 | Crabgrass plant response rating [13, 22]: 9 | Crabgrass plant response rating [13, 23]: 0 | Plant response rating, Crabgrass [13, 24]: 9 | Rape plant response rating [14, 17]: 0 | Rape plant response rating [14, 18]: 0 | Rape plant response rating [14, 19]: 0 | Plant response rating, Rape [14, 20]: 0 | Rape plant response rating [14, 21]: 0 | Rape plant response rating [14, 22]: 0 | Rape plant response rating [14, 23]: 0 | Plant response rating, Rape [14, 24]: 0 | Rice plant response rating [15, 25]: 0 | Rice plant response rating (0 to 10 scale, 0 is no effect, 10 is complete control) [15, 26]: 0 | Rice plant response rating [15, 27]: 0 | Rice plant response rating [15, 28]: 0 | S. Flatsedge plant response rating [16, 25]: 0 | S. Flatsedge plant response rating (0 to 10 scale, 0 is no effect, 10 is complete control) [16, 26]: 0 | S. Flatsedge plant response rating [16, 27]: 0 | S. Flatsedge plant response rating [16, 28]: 0

Reference: patent US6737383B1, “Herbicidal oxadiazolidines” (priority 1999, dated 2004)
